Like-named read-outs stand apart in the source and are kept apart here.
How the values were obtained:
[1] = tested on: human intestinal L-cells (NCI-H716); test: GLP-1 secretion in human intestinal L-cells (NCI-H716); format: cell-based; conditions: for GLP-1 secretion in vitro: NCI-H716 L-cells, 2 hours; for GLP-1 secretion in vitro by CA7S extracted from cecal contents of SG mice: material extracted from mouse cecum
NCI-H716 cells = test: Calcium measurement in NCI-H716 cells; format: cell-based, human
Protocol: The cells were allowed to grow for 2 days in complete RPMI media. […] The concentration of DMSO was kept constant throughout the treatments and used as a negative control. Cells were incubated at 37° C. in an atmosphere of 5% CO2 for 2 hours. […] Cells on cell culture plates were placed on ice and gently washed with PBS (GenClone).

Caco-2 cells = test: Cell viability assay in Caco-2 cells; format: cell-based, human; conditions: overnight incubation
Protocol: Cell viability assay. […] The concentration of DMSO was kept constant and used as a negative control. […] Cell viability was measured in Countess II automated cell counter (Invitrogen). Percentage relative viability was calculated compared to DMSO control.

pH stability test = format: physicochemical; conditions: pH 1, 7.4 and 9, overnight at 37° C.
Protocol: pH stability test. […] Briefly, buffers of pH 1 (0.1 M HCl), pH 7.4 (PBS) and pH 9 (a 10 mM solution of ammonium formate adjusted to pH 9 with ammonium hydroxide) (all from Sigma) were prepared.

DIO mice [2] = test: In vivo enteral (duodenal and rectal) treatment of DIO mice: glucose, GLP-1, insulin, TGR5 expression; design: species or system mouse; conditions: for Systemic GLP-1 levels: within 15 min
DIO mice [3] = test: In vivo CA7S oral gavage: systemic GLP-1; design: species or system mouse; conditions: oral gavage 100 mg/kg, 5 hours post-treatment, vs PBS
DIO mice [4] = test: In vivo CA7S gavage and oral glucose tolerance test (OGTT); design: species or system mouse; conditions: gavage 100 mg/kg, vs vehicle
Protocol: (§1) Age matched, […] mice were kept on HFD and their blood glucose levels were monitored until average fasting glucose levels were >160 mg/dL. Animals were fasted for 4 hours on the day of the experiment. […] Three hours later, an OGTT was performed using an oral gavage of 2 mg/g oral D-glucose (Sigma-Aldrich, St. Louis, Mo.). Blood glucose levels were measured at baseline and at minutes 15, 30, 60 and 120 with a OneTouch glucometer.

DIO mice [5] = test: CA7S gavage and OGTT after lentiviral shRNA knockdown of GLP-1R; format: in vivo, mouse; conditions: GLP-1R shRNA knockdown, gavage 100 mg/kg, vs PBS
Protocol: as §1

[6] = In vivo CA7S oral gavage: CA7S concentration in tissues and blood
Protocol: Extraction. Cecal, liver, and human fecal samples (approximately 50 mg each) and mouse portal veins were pre-weighed in lysis tubes containing ceramic beads (Precellys lysing kit tough micro-organism lysing VK05 tubes for cecal, fecal samples, and portal veins; tissue homogenizing CIKMix tubes for liver samples; Bertin technologies, Montigny-le-Bretonneux, France). 400p L of methanol containing 10 μM internal standard (GCA) was added and the tubes were homogenized in a MagNA Lyser (6000 speed for 90 s*2, 7000 speed for 60 s). 50 μl of mouse serum was collected in Eppendorf tubes, followed by addition of 50 μL of methanol containing 10 μM internal standard (GCA). After vortexing for 1 min, the sample was cooled to −20° C. for 20 min. All methanol-extracted tissue samples were centrifuged at 4° C. for 30 min at 15,000 rpm. […]
UPLC-MS. […] Samples were analyzed using an Agilent Technologies 12990 Infinity 11 UPLC system coupled online to an Agilent Technologies 6120 Quadrupole LC/MS spectrometer in negative electrospray mode with a scan range of 350-550 m/z (MSD settings: fragmentor—250, gain—3.00, threshold—150, Step size—0.10, speed (u/sec)—743). […] For quantification of the analytes, standard curves were obtained using known bile acids, and then each analyte was quantified based on the standard curve and normalized based on the internal standard. […]

[7] = CA7S concentration in tissues and blood after enteral CA7S (UPLC-MS bile acid analysis)
[8] = listed as Cholic acid-7-sulfate

With `C[C@H](CCC(=O)O)[C@H]1CC[C@H]2[C@@H]3[C@H](OS(=O)(=O)O)C[C@@H]4C[C@H](O)CC[C@]4(C)[C@H]3C[C@H](O)[C@]12C` [CA7S, cholic acid-7-sulfate] the “GLP-1 secretion after siRNA-mediated knockdown of TGR5” value [1] was “abolished GLP-1 secretion”, the “GLP-1 secretion in vitro” value [1] was “to a similar degree as TDCA in a dose-dependent manner” and the “GLP-1 secretion in vitro” value [1, 8] was “induces GLP-1 secretion in vitro better than the known GLP-1 inducer TDCA”. For the same molecule, the “GLP-1 secretion in vitro by CA7S extracted from cecal contents of SG mice” value [1] was “also induced GLP-1 secretion in vitro”, the “GLP-1 secretion in vitro by CA7S extracted from cecal contents of SG mice” value ([1]; listed as cholic acid-7-sulfate) was “exhibit activity inducing GLP-1 secretion in vitro” and the “Calcium levels in L-cells” value (NCI-H716 cells) was “dose-dependent increase in calcium levels”. For the same molecule, the “Calcium levels in L-cells” value (NCI-H716 cells; [8]) was “increased calcium levels”, the “Toxicity in intestinal Caco cells” value (Caco-2 cells) was “no toxicity” and the “Stability at different pHs” value (pH stability test) was “stable in a wide range of pHs”. The Insulin levels (DIO mice [2]; DIO mice, enteral, vs PBS) was “increased insulin levels”, the “TGR5 expression in colon and terminal ileum” value (DIO mice [2]; DIO mice, enteral CA7S) was “increased in the colon, but not the terminal ileum” and the Blood glucose levels (DIO mice [2]; HFD-fed DIO mice, enteral 1 mg, 15 min, vs PBS) was “reduced blood glucose levels”. The “Systemic GLP-1 levels” value (DIO mice [2]; HFD-fed DIO mice, enteral 1 mg, vs PBS) was “increased systemic GLP-1 levels”, the “Systemic GLP-1 levels” value (DIO mice [2]; HFD-fed DIO mice, enteral 1 mg, vs PBS, listed as cholic acid-7-sulfate) was “induced GLP-1 levels” and the “Systemic levels of GLP-1” value (DIO mice [3]) was “increased”. For the same molecule, the “Total and incremental areas under the glucose versus time curves (AUC and iAUC)” value (DIO mice [4]) was “significantly decreased”, the “Glycemic curves and AUCs in OGTT in the absence of GLP-1R” value (DIO mice [5]) was “no significant differences in the glycemic curves or AUCs” and the “CA7S concentration (mean ± SEM), portal vein” value ([6]; DIO mice, CA7S gavage 100 mg/kg, 5 hours) was 13.2 ± 7.7 pmol/µL. The “CA7S accumulation in cecal contents (mean value)” value ([6]; oral gavage 100 mg/kg, 5 hours post-gavage) was 15,000 picomol/mg wet mass, the “CA7S concentration (mean ± SEM), cecum” value ([7]; DIO mice, enteral CA7S) was 2577 ± 185 pmol/mg and the “CA7S concentration (mean ± SEM), portal vein” value ([7]; DIO mice, enteral CA7S) was 6.13 ± 2.11 pmol/mg. For the same molecule, the “CA7S concentration (mean ± SEM), systemic blood” value ([7]; DIO mice, enteral CA7S) was 0.5 ± 0.2 pmol/µL, the “CA7S in cecal contents (average)” value ([7]; administration of 1 mg via duodenal and rectal catheters) was 2500 pmol/mg wet mass and the “cholic acid-7-sulfate in the cecum” value ([7]; dosing with 1 mg) was about 2500 µM. The “Leak into systemic circulation and portal vein” value ([7]; ectopic (enteral) introduction) was “only minor amounts to leak into systemic circulation and in the portal vein”.

With `C[C@H](CCC(=O)O)[C@H]1CC[C@H]2[C@@H]3[C@H](O)C[C@@H]4C[C@H](O)CC[C@]4(C)[C@H]3C[C@H](O)[C@]12C` [CA, cholic acid, reference compound] the “GLP-1 secretion in vitro” value [1] was “had no effect on GLP-1 secretion” and the “GLP-1 secretion in vitro” value ([1]; listed as cholic acid) was “had no effect”.

With `C[C@H](CCC(=O)NCCS(=O)(=O)O)[C@H]1CC[C@H]2[C@@H]3CC[C@@H]4C[C@H](O)CC[C@]4(C)[C@H]3C[C@H](O)[C@]12C` [TDCA, taurodeoxycholic acid, reference compound] the “GLP-1 secretion after siRNA-mediated knockdown of TGR5” value ([1]; NCI-H716, TGR5 siRNA) was “abolished”.

From patent US12186329B2 (President and Fellows of Harvard College, priority 2018, dated 2025)
